We go through 21 compounds from ChEMBL document CHEMBL5252563, “Structure-activity relationship studies of anti-bunyaviral cap-dependent endonuclease inhibitors” (Bioorg Med Chem Lett, 2023).

Data set [1] deals with Mammarenavirus choriomeningitidis. Briefly: Antiviral activity against Lymphocytic choriomeningitis virus. The format is functional, organism-based.
For data set [2], the system named is Junin virus. Briefly: Antiviral activity against Junin virus. In kind it is functional, organism-based. To be noted: Mammarenavirus juninense.
The nature of data set [3]: Elimination half-life in rat at 2 umol/kg, po or 1 umol/kg, iv administered as cassette dose. The format is ADME, organism-based. As to conditions: in vivo, dose 2 µmol/kg, read-out: LambdaZ (converted).
The test system of data set [4] is Junin virus. The data set can be described thus: Potency index, ratio of ribavirin EC50 to test compound EC50 for antiviral activity against Junin virus. In kind it is functional, Mammarenavirus juninense.
Data set [5] can be described thus: AUC in rat at 1 umol/kg, iv administered as cassette dose. In kind it is ADME, organism-based. More on the design: dose 1 µmol/kg, route iv. As to conditions: in vivo.
A short description of data set [6]: Bioavailability in rat at 2 umol/kg, po or 1 umol/kg, iv administered as cassette dose. The format is ADME, organism-based. As to conditions: in vivo, at 2 µmol/kg.
The nature of data set [7]: Unbound fraction in rat serum at 2 umol/kg, po or 1 umol/kg, iv administered as cassette dose. As to conditions: at 2 µmol/kg. The format is ADME, organism-based.
Data set [8] in a line: Metabolic stability in rat liver microsomes. The format is ADME, Microsome.
Data set [9] concerns Mammarenavirus choriomeningitidis. Briefly: Potency index, ratio of ribavirin EC50 to test compound EC50 for antiviral activity against Lymphocytic choriomeningitis virus. The format is functional.
Data set [10] in a line: Metabolic stability in human liver microsomes. The format is ADME, Microsome.

Usually EC50 stands for the concentration that produces a half-maximal response. For the compound `COCCN1CN(C2c3ccccc3CCc3ccccc32)n2cc(C(=O)O)c(=O)c(O)c2C1=O`, the EC50 was 5.3 nM in data set [1] and 5 nM in the data set with Junin virus [2].
`Cc1ccc2c(c1)C(N1CN(C(C)C)C(=O)c3c(O)c(=O)c(C(=O)O)cn31)c1cc(C)ccc1CC2`: the EC50 was 100 nM in data set [1] and 176 nM in the data set on Junin virus [2].
With `CCN(CC)CCN1CN(C2c3ccccc3CCc3ccccc32)n2cc(C(=O)O)c(=O)c(O)c2C1=O`, the EC50 (in [1]; in the data set with Junin virus [2]) was above 1000 nM in each case.
`CC(C)N1CN(Cc2ccccc2-c2ccccc2)n2cc(C(=O)O)c(=O)c(O)c2C1=O`: the EC50 in [1] came out at 499 nM; in the data set on Junin virus [2], 437 nM.
Take `O=C(Nc1nnn[nH]1)c1cn2c(c(O)c1=O)C(=O)N(CC1CC1)CN2C1c2ccccc2CCc2ccccc21`: the half-maximal effective concentration (EC50) was 284 nM in [1] and 404 nM in the data set with Junin virus [2].
The matching figures for `O=C(NO)c1cn2c(c(O)c1=O)C(=O)N(CC1CC1)CN2C1c2ccccc2CCc2ccccc21`: 109 nM and 120 nM.
For the compound `O=C(O)c1cn2c(c(O)c1=O)C(=O)N(CC1CCCC1)CN2C1c2ccccc2CCc2ccccc21`, the figures for the EC50 (in data set [1]; with Junin virus [2]) were 17 nM and 25 nM, respectively.
In the same order, the values of `Cc1cccc2c1CCc1c(C)cccc1C2N1CN(C(C)C)C(=O)c2c(O)c(=O)c(C(=O)O)cn21` are 1.7 nM and 3.1 nM.
Take `CCN1CN(C2c3ccccc3CCc3ccccc32)n2cc(C(=O)O)c(=O)c(O)c2C1=O`: the EC50 in data set [1] was 6.2 nM; in the data set with Junin virus [2], 3.3 nM.
The term AUC denotes concentration integrated over time. Lower therefore signals less exposure. Broadly, the bioavailability is dose-corrected exposure relative to a reference, in per cent. In general, fraction unbound refers to free concentration divided by total concentration. As for `CC(C)N1CN(C2c3ccccc3CCc3ccccc32)n2cc(C(=O)O)c(=O)c(O)c2C1=O`, the half-life in data set [3] is 2 h. The concentration giving a half-maximal response (EC50) in [1] was determined as 4.5 nM; in the data set on Junin virus [2], 2.4 nM. The “Ratio EC50” value (in the data set on Junin virus [4]; in data set [9]) was 1000 in each case. This compound showed an AUC in data set [5] of 0.928 µM·h. The compound further yielded a bioavailability in [6] of 10.1%. In addition, the fraction unbound in data set [7] worked out at 0.00293. For the same compound, the Stability in data set [8] came out at 81.8%; in [10], 107%.
Regarding `CC(C)N1CN(C2c3ccccc3CSc3ccccc32)n2cc(C(=O)O)c(=O)c(O)c2C1=O` (stereo not drawn), the figures for the EC50 (in data set [1]; in the data set with Junin virus [2]) were 8 nM and 3.6 nM, respectively. Besides, the “Ratio EC50” value (in the data set with Junin virus [4]; in data set [9]) was 1000 in each case.
Consider `COC(=O)c1cn2c(c(O)c1=O)C(=O)N(CC1CC1)CN2C1c2ccccc2CCc2ccccc21`, for which the figures for the concentration giving a half-maximal response (EC50) (in data set [1]; in the data set on Junin virus [2]) were 305 nM and 271 nM, respectively.
For `O=C(O)c1cn2c(c(O)c1=O)C(=O)N(C1CC1)CN2C1c2ccccc2CCc2ccccc21`, the EC50 in [1] was found to be 7.8 nM; in the data set with Junin virus [2], 13.4 nM.
Regarding `O=C(O)c1cn2c(c(O)c1=O)C(=O)N(CC1CC1)CN2C1c2ccccc2CCc2ccccc21`, the half-life in data set [3] was 1.5 h. Besides, the values for the EC50 (in data set [1]; in the data set on Junin virus [2]) were 4.1 nM and 5.8 nM, respectively. In data set [5], this compound came in with an area under the curve (AUC) of 1.47 µM·h. This compound came in with a bioavailability in data set [6] of 8.2%. In data set [7], this compound displayed a fraction unbound of 0.0136. Further, the Stability in data set [8] stood at 95.3%; in data set [10], 100%.
For the compound `CN1CN(C2c3ccccc3CCc3ccccc32)n2cc(C(=O)O)c(=O)c(O)c2C1=O`, the EC50 in data set [1] amounted to 24 nM; in the data set with Junin virus [2], 9.2 nM.
In the same order, the values of `O=C(O)c1cn2c(c(O)c1=O)C(=O)N(CC1CCCCC1)CN2C1c2ccccc2CCc2ccccc21` are 15 nM and 20 nM.
In the same order, the values of `Cc1ccc2c(c1)CCc1cc(C)ccc1C2N1CN(C(C)C)C(=O)c2c(O)c(=O)c(C(=O)O)cn21` are 13 nM and 34 nM.
Regarding `O=C1c2c(O)c(=O)c(-c3noc(=O)[nH]3)cn2N(C2c3ccccc3CCc3ccccc32)CN1CC1CC1`, the values for the EC50 (in [1]; in the data set on Junin virus [2]) were 119 nM and 189 nM, respectively.
In the same order, the values of `O=C1c2c(O)c(=O)c(-c3nnn[nH]3)cn2N(C2c3ccccc3CCc3ccccc32)CN1CC1CC1` are 127 nM and above 1000 nM.
Turning to `CC(C)N1CN(Cc2ccccc2)n2cc(C(=O)O)c(=O)c(O)c2C1=O`, the half-maximal effective concentration (EC50) (in data set [1]; in the data set on Junin virus [2]) was above 1000 nM each time.
As to `NC(=O)c1ncn([C@@H]2O[C@H](CO)[C@@H](O)[C@H]2O)n1` [RIBAVIRIN], the figures for the EC50 (in data set [1]; with Junin virus [2]) were 3500 nM and 2500 nM, respectively.
